Test results published in PubChem BioAssay AID248 (DTP/NCI, 2004).
“And” between values parts separate entries of the source, which are not always exact repeats. Equal values may be shown once. Inconclusive results and toxic doses are left out. Cut-off read from the data, not from the text of the source: active = T/C of 150% or more; inactive = T/C below 125%.

Tested on: L1210 leukemia ip in BDF1 mice, survival T/C
Experiment: NCI In Vivo Anticancer Drug Screen. Data for tumor model L1210 Leukemia (intraperitoneal) in B6D2F1 (BDF1) mice
Conditions: endpoint: mean survival time, higher = longer survival
Summary of the method: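 In this screen, tumor-bearing mice given compound are compared to those given vehicle, and their survival values are reported as a treated-to-control quotient.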

[1] = dose: 100.0 mg/kg/injection, schedule: Q01DX001 (ip), vehicle: saline
[2] = dose: 200.0 mg/kg/injection, schedule: Q01DX001 (ip), vehicle: saline
[3] = dose: 400.0 mg/kg/injection, schedule: Q01DX001 (ip), vehicle: saline
[4] = dose: 100.0 mg/kg/injection, schedule: Q04DX003 (ip), vehicle: Klucel (hydroxypropylcellulose) (HPC)
[5] = dose: 200.0 mg/kg/injection, schedule: Q04DX003 (ip), vehicle: Klucel (hydroxypropylcellulose) (HPC)
[6] = dose: 400.0 mg/kg/injection, schedule: Q04DX003 (ip), vehicle: Klucel (hydroxypropylcellulose) (HPC)

Measured: T/C

CC[S][Hg][Cl]
inactive: dose: 3.0 mg/kg/injection, schedule: Q01DX009 (ip), vehicle: saline with Tween-80 92 % of control | dose: 6.0 mg/kg/injection, schedule: Q01DX009 (ip), vehicle: saline with Tween-80 101 % of control | dose: 12.5 mg/kg/injection, schedule: Q04DX003 (ip), vehicle: saline with Tween-80 101 % of control

COC(=O)CCC(N=C=O)C(=O)OC (stereo not drawn)
inactive: [1] 101 % of control | [2] 98 % of control | [3] 106 % of control

Nc1c(Cl)cc(S(N)(=O)=O)cc1Cl
inactive: dose: 100.0 mg/kg/injection, schedule: Q01DX009 (ip), vehicle: other 98 % of control | dose: 100.0 mg/kg/injection, schedule: Q04DX003 (ip), vehicle: other 100 % of control | dose: 200.0 mg/kg/injection, schedule: Q01DX009 (ip), vehicle: other 91 % of control | dose: 200.0 mg/kg/injection, schedule: Q04DX003 (ip), vehicle: other 98 % of control | dose: 400.0 mg/kg/injection, schedule: Q04DX003 (ip), vehicle: other 98 % of control

COc1ccc(N(N=O)C(C)C)cc1
inactive: dose: 12.5 mg/kg/injection, schedule: Q01DX009 (ip), vehicle: saline with Tween-80 87 % of control | dose: 25.0 mg/kg/injection, schedule: Q01DX009 (ip), vehicle: saline with Tween-80 94 % of control | dose: 50.0 mg/kg/injection, schedule: Q01DX009 (ip), vehicle: saline with Tween-80 87 % of control | dose: 100.0 mg/kg/injection, schedule: Q01DX009 (ip), vehicle: saline with Tween-80 89 % of control | dose: 200.0 mg/kg/injection, schedule: Q01DX009 (ip), vehicle: saline with Tween-80 92 % of control

O=C1c2ccccc2C(=O)N1Cc1ncn[nH]1
inactive: dose: 100.0 mg/kg/injection, schedule: Q01DX001 (ip), vehicle: saline with Tween-80 100 % of control | dose: 200.0 mg/kg/injection, schedule: Q01DX001 (ip), vehicle: saline with Tween-80 96 % of control | dose: 400.0 mg/kg/injection, schedule: Q01DX001 (ip), vehicle: saline with Tween-80 91 % of control

CC(C)(Cc1ccc(F)cc1)NCc1ccccc1
inactive: dose: 25.0 mg/kg/injection, schedule: Q01DX009 (ip), vehicle: Klucel (hydroxypropylcellulose) (HPC) 92 % of control | dose: 25.0 mg/kg/injection, schedule: Q04DX003 (ip), vehicle: Klucel (hydroxypropylcellulose) (HPC) 101 % of control | dose: 50.0 mg/kg/injection, schedule: Q01DX009 (ip), vehicle: Klucel (hydroxypropylcellulose) (HPC) 95 % of control | dose: 50.0 mg/kg/injection, schedule: Q04DX003 (ip), vehicle: Klucel (hydroxypropylcellulose) (HPC) 103 % of control | [4] 88 % of control and 92 % of control

CC(C)C1CCC2(CC1)CCN(CCCN(C)C)CC2
inactive: dose: 50.0 mg/kg/injection, schedule: Q01DX001 (ip), vehicle: saline 93 % of control | [1] 113 % of control

O=C(O)C1CC2C3CC(C(=O)O)C(C3)C2C1 (stereo not drawn)
inactive: dose: 100.0 mg/kg/injection, schedule: Q01DX009 (ip), vehicle: saline 96 % of control | dose: 100.0 mg/kg/injection, schedule: Q04DX003 (ip), vehicle: saline 102 % of control | dose: 200.0 mg/kg/injection, schedule: Q01DX009 (ip), vehicle: saline 101 % of control | dose: 200.0 mg/kg/injection, schedule: Q04DX003 (ip), vehicle: saline 100 % of control | dose: 400.0 mg/kg/injection, schedule: Q01DX009 (ip), vehicle: saline 101 % of control | dose: 400.0 mg/kg/injection, schedule: Q04DX003 (ip), vehicle: saline 96 % of control

CCC/C=N/Nc1ccnc(SC)n1
inactive: dose: 100.0 mg/kg/injection, schedule: Q01DX009 (ip), vehicle: gum acacia 97 % of control

CC(C#N)C(N)=O (stereo not drawn)
inactive: dose: 12.5 mg/kg/injection, schedule: Q04DX003 (ip), vehicle: saline 97 % of control | dose: 25.0 mg/kg/injection, schedule: Q04DX003 (ip), vehicle: saline 94 % of control | dose: 50.0 mg/kg/injection, schedule: Q04DX003 (ip), vehicle: saline 105 % of control

Cn1c(=O)c2c(nc(C3CC4C5CCC(C5)C4C3)n2C)n(C)c1=O (stereo not drawn)
inactive: dose: 100.0 mg/kg/injection, schedule: Q01DX001 (ip), vehicle: carboxymethylcellulose (CMC) 103 % of control | dose: 200.0 mg/kg/injection, schedule: Q01DX001 (ip), vehicle: carboxymethylcellulose (CMC) 95 % of control | dose: 400.0 mg/kg/injection, schedule: Q01DX001 (ip), vehicle: carboxymethylcellulose (CMC) 95 % of control

CC1=C(O)C(=O)C(c2c(C)cc(C)c(Br)c2C)=C(O)C1=O
inactive: dose: 75.0 mg/kg/injection, schedule: Q01DX009 (ip), vehicle: Klucel (hydroxypropylcellulose) (HPC) 117 % of control

CCOC(=O)NC(CC)CO (stereo not drawn)
inactive: dose: 100.0 mg/kg/injection, schedule: Q01DX009 (ip), vehicle: Klucel (hydroxypropylcellulose) (HPC) 96 % of control | [4] 96 % of control | dose: 200.0 mg/kg/injection, schedule: Q01DX009 (ip), vehicle: Klucel (hydroxypropylcellulose) (HPC) 92 % of control | [5] 104 % of control | dose: 400.0 mg/kg/injection, schedule: Q01DX009 (ip), vehicle: Klucel (hydroxypropylcellulose) (HPC) 108 % of control | [6] 96 % of control

CC#CCCC(=O)OCC
inactive: dose: 100.0 mg/kg/injection, schedule: Q04DX002 (ip), vehicle: Klucel (hydroxypropylcellulose) (HPC) 104 % of control | dose: 200.0 mg/kg/injection, schedule: Q04DX002 (ip), vehicle: Klucel (hydroxypropylcellulose) (HPC) 106 % of control | dose: 400.0 mg/kg/injection, schedule: Q04DX002 (ip), vehicle: Klucel (hydroxypropylcellulose) (HPC) 95 % of control

C/C(=N/N=C(N)N)C(F)(F)F
inactive: dose: 15.0 mg/kg/injection, schedule: Q01DX Z (ip), vehicle: saline 104 % of control | dose: 15.0 mg/kg/injection, schedule: Q01DX Z (oral), vehicle: saline 108 % of control | dose: 30.0 mg/kg/injection, schedule: Q01DX Z (ip), vehicle: saline 87 % of control | dose: 30.0 mg/kg/injection, schedule: Q01DX Z (oral), vehicle: saline 106 % of control

CCCCCCCCCCCCCCCC(=O)OC(C)CCC1CCCO1 (stereo not drawn)
inactive: [1] 90 % of control | [2] 95 % of control | [3] 90 % of control

CCC[CH2][Sn]([Cl])([CH2]CCC)[S]C(=S)NCCNC(=S)[S][Sn]([Cl])([CH2]CCC)[CH2]CCC
inactive: dose: 6.0 mg/kg/injection, schedule: Q04DX002 (ip), vehicle: other 98 % of control | dose: 12.0 mg/kg/injection, schedule: Q04DX002 (ip), vehicle: other 117 % of control | dose: 25.0 mg/kg/injection, schedule: Q04DX002 (ip), vehicle: other 102 % of control

CCCCCCCCCCCC(=O)[O][Pb]([CH2]CCC)([CH2]CCC)[O]C(=O)CCCCCCCCCCC
inactive: dose: 6.25 mg/kg/injection, schedule: Q04DX002 (ip), vehicle: gum acacia 95 % of control | dose: 12.5 mg/kg/injection, schedule: Q04DX002 (ip), vehicle: gum acacia 92 % of control and 98 % of control | dose: 25.0 mg/kg/injection, schedule: Q04DX002 (ip), vehicle: gum acacia 88 % of control

N=C([Se])c1cn(C2OC(CO)C(O)C2O)c2ncnc(N)c12 (stereo not drawn)
inactive: dose: 0.09 mg/kg/injection, schedule: Q01DX009 (ip), vehicle: saline 109 % of control | dose: 0.19 mg/kg/injection, schedule: Q01DX005 (ip), vehicle: saline 119 % of control | dose: 0.19 mg/kg/injection, schedule: Q01DX009 (ip), vehicle: saline 108 % of control | dose: 0.39 mg/kg/injection, schedule: Q01DX005 (ip), vehicle: saline 117 % of control | dose: 0.39 mg/kg/injection, schedule: Q01DX009 (ip), vehicle: saline 104 % of control | dose: 0.78 mg/kg/injection, schedule: Q01DX005 (ip), vehicle: saline 106 % of control

CC(=O)COc1cccc(Cl)c1
inactive: [4] 104 % of control | [5] 98 % of control | [6] 97 % of control

OCC1OC(n2cc(Br)c3c(NO)ncnc32)C(O)C1O (stereo not drawn)
inactive: dose: 5.0 mg/kg/injection, schedule: Q01DX001 (ip), vehicle: saline 103 % of control | dose: 10.0 mg/kg/injection, schedule: Q01DX001 (ip), vehicle: saline 101 % of control
